Counter-ions that a name gives are not always drawn.
Columns and labels:
[1] = tested on: NCI-H292 lung cancer cells; assay: FDA drug screening, complete media vs cholesterol-free media without statin (TABLE 1); format: cell-based, human
[2] = tested on: NCI-H292 lung cancer cells; assay: FDA drug screening, complete media vs cholesterol-free media with simvastatin (TABLE 2); format: cell-based, human; settings: for Cholesterol-free media + simvastatin (0.04 μM) / Complete Media: NCI-H292 cells
[3] = Complete minus Cholesterol-free, >0 enhanced anti-cancer activity, about 0 neutral, <0 antagonist
[4] = NCI-H292 cells, cholesterol-free media without statin
[5] = FDA drug library screen, cholesterol-free media with simvastatin 0.04 μM
[6] = FDA drug library screen, complete media
[7] = complete media vs cholesterol-free media + simvastatin (0.04 μM), >0 enhanced anti-cancer activity, about 0 neutral, <0 antagonist
[8] = NCI-H292 cells, cholesterol-free media without statin, FDA drug library screen
[9] = NCI-H292 cells, complete media, FDA drug library screen
[10] = cholesterol-free media with simvastatin 0.04 μM, FDA drug library screen (TABLE 2)
[11] = complete media, FDA drug library screen (TABLE 2)
[12] = complete media minus cholesterol-free media + simvastatin (0.04 μM), >0 enhanced anti-cancer activity, about 0 neutral, <0 antagonist
[13] = Complete minus Cholesterol-free, greater than 0 enhanced anti-cancer activity, about 0 neutral, below 0 antagonist
[14] = NCI-H292 cells, FDA drug library screen, cholesterol-free media without statin
[15] = NCI-H292 cells, FDA drug library screen, complete media
[16] = cholesterol-free media with simvastatin 0.04 μM, cell growth value in FDA drug screen
[17] = complete media, cell growth value in FDA drug screen
[18] = complete media minus cholesterol-free media + simvastatin, >0 enhanced anti-cancer activity, about 0 neutral, <0 antagonist
[19] = complete vs cholesterol-free media, greater than 0 enhanced anti-cancer activity, about 0 neutral, below 0 antagonists
[20] = complete vs cholesterol-free media, >0 enhanced anti-cancer activity, about 0 neutral, <0 antagonist
[21] = drug in cholesterol-free media with simvastatin 0.04 μM
[22] = FDA library drug in complete media
[23] = FDA library drug in cholesterol-free media with simvastatin 0.04 μM
[24] = NCI-H292 cells in cholesterol-free media without statin
[25] = NCI-H292 cells in complete media

## CC(C)(C)NC(=O)N[C@H](C(=O)N1C[C@H]2[C@@H]([C@H]1C(=O)NC(CC1CCC1)C(=O)C(N)=O)C2(C)C)C(C)(C)C (some centres unmarked) [Boceprevir]
[1]; [3]
  Difference: −0.30
[1]; [4]
  Cholesterol-free: 1.3
[1]; NCI-H292 cells, complete media
  Complete: 1.001
[2]; [5]
  Cholesterol-free media + simvastatin (0.04 μM): 1.494
[2]; [6]
  Complete Media: 1.414
[2]; [7]
  Difference: −0.08

## CC(C)C[C@H](NC(=O)[C@H](Cc1ccccc1)NC(=O)c1cnccn1)B(O)O [Bortezomib]
[1]; [3]
  Difference: 0.00
[1]; [8]
  Cholesterol-free: 0.006863
[1]; [9]
  Complete: 0.00697
[2]; [10]
  Cholesterol-free media + simvastatin (0.04 μM): 0.003233
[2]; [11]
  Complete Media: −0.017
[2]; [12]
  Difference: −0.02

## COc1ccccc1Oc1c(NS(=O)(=O)c2ccc(C(C)(C)C)cc2)nc(-c2ncccn2)nc1OCCO [Bosentan (hydrate)]
[1]; [13]
  Difference: −0.13
[1]; [14]
  Cholesterol-free: 1.31
[1]; [15]
  Complete: 1.181
[2]; [10]
  Cholesterol-free media + simvastatin (0.04 μM): 1.256
[2]; [11]
  Complete Media: 1.269
[2]; [12]
  Difference: 0.01

## COc1ccccc1Oc1c(NS(=O)(=O)c2ccc(C(C)(C)C)cc2)nc(-c2ncccn2)nc1OCCO [Bosentan]
[1]; [3]
  Difference: −0.05
[1]; [8]
  Cholesterol-free: 1.038
[1]; [9]
  Complete: 0.9904
[2]; [10]
  Cholesterol-free media + simvastatin (0.04 μM): 1.122
[2]; [11]
  Complete Media: 1.122
[2]; [12]
  Difference: 0.00

## COc1cc(Nc2c(C#N)cnc3cc(OCCCN4CCN(C)CC4)c(OC)cc23)c(Cl)cc1Cl [Bosutinib]
[1]; [3]
  Difference: 0.05
[1]; [8]
  Cholesterol-free: 0.4091
[1]; [9]
  Complete: 0.4542
[2]; [16]
  Cholesterol-free media + simvastatin (0.04 μM): 0.2873
[2]; [17]
  Complete Media: 0.3524
[2]; [18]
  Difference: 0.07

## O=c1ccc2ccc(OCCCCN3CCN(c4cccc5sccc45)CC3)cc2[nH]1 [Brexpiprazole]
[1]; [4]
  Cholesterol-free: 0.9917
[1]; NCI-H292 cells, complete media
  Complete: 0.6405
[1]; [19]
  Difference: −0.35
[2]; [16]
  Cholesterol-free media + simvastatin (0.04 μM): 0.8945
[2]; [17]
  Complete Media: 1.024
[2]; [18]
  Difference: 0.13

## COc1cc(N2CCC(N3CCN(C)CC3)CC2)ccc1Nc1ncc(Cl)c(Nc2ccccc2P(C)(C)=O)n1 [Brigatinib]
[1]; [8]
  Cholesterol-free: 0.5531
[1]; [9]
  Complete: 0.9482
[1]; [20]
  Difference: 0.40
[2]; [21]
  Cholesterol-free media + simvastatin (0.04 μM): 0.8361
[2]; drug in complete media
  Complete Media: 0.6309
[2]; [7]
  Difference: −0.21

## Brc1c(NC2=NCCN2)ccc2nccnc12 [Brimonidine]
[1]; [3]
  Difference: −0.01
[1]; [8]
  Cholesterol-free: 0.9724
[1]; [9]
  Complete: 0.9659
[2]; [21]
  Cholesterol-free media + simvastatin (0.04 μM): 0.9016
[2]; drug in complete media
  Complete Media: 0.7279
[2]; [7]
  Difference: −0.17

## CCN[C@H]1CN(CCCOC)S(=O)(=O)c2sc(S(N)(=O)=O)cc21 [Brinzolamide]
[1]; [3]
  Difference: 0.00
[1]; [8]
  Cholesterol-free: 0.8738
[1]; [9]
  Complete: 0.876
[2]; [16]
  Cholesterol-free media + simvastatin (0.04 μM): 1.105
[2]; [17]
  Complete Media: 1.197
[2]; [18]
  Difference: 0.09

## O=c1[nH]c(=O)n([C@H]2C[C@H](O)[C@@H](CO)O2)cc1/C=C/Br [Brivudine]
[1]; [4]
  Cholesterol-free: 1.108
[1]; NCI-H292 cells, complete media
  Complete: 0.7267
[1]; [19]
  Difference: −0.38
[2]; [16]
  Cholesterol-free media + simvastatin (0.04 μM): 1.157
[2]; [17]
  Complete Media: 1.26
[2]; [18]
  Difference: 0.10

## Nc1c(CC(=O)O)cccc1C(=O)c1ccc(Br)cc1 [Bromfenac (sodium hydrate)]
[1]; [4]
  Cholesterol-free: 1.074
[1]; NCI-H292 cells, complete media
  Complete: 0.716
[1]; [19]
  Difference: −0.36
[2]; [5]
  Cholesterol-free media + simvastatin (0.04 μM): 1.132
[2]; [6]
  Complete Media: 1.293
[2]; [18]
  Difference: 0.16

## Nc1c(CC(=O)O)cccc1C(=O)c1ccc(Br)cc1 [Bromfenac (sodium)]
[1]; [4]
  Cholesterol-free: 1.333
[1]; NCI-H292 cells, complete media
  Complete: 0.9935
[1]; [19]
  Difference: −0.34
[2]; [22]
  Complete Media: 1.029
[2]; [7]
  Difference: −0.59

## CN(Cc1cc(Br)cc(Br)c1N)C1CCCCC1 [Bromhexine (hydrochloride)]
[1]; [13]
  Difference: −0.09
[1]; [14]
  Cholesterol-free: 1.344
[1]; [15]
  Complete: 1.254
[2]; [23]
  Cholesterol-free media + simvastatin (0.04 μM): 1.081
[2]; [22]
  Complete Media: 0.7932
[2]; [7]
  Difference: −0.29

## CC(C)C(Br)C(=O)NC(N)=O (centres unmarked) [Bromisoval]
[1]; Complete minus Cholesterol-free, […]
  Difference: −0.47
[1]; [24]
  Cholesterol-free: 1.334
[1]; [25]
  Complete: 0.8605
[2]; [21]
  Cholesterol-free media + simvastatin (0.04 μM): 1.086
[2]; drug in complete media
  Complete Media: 0.9233
[2]; complete media vs cholesterol-free media + simvastatin (0.04 μM), […]
  Difference: −0.16

## O=C(CCCN1CCC(O)(c2ccc(Br)cc2)CC1)c1ccc(F)cc1 [Bromperidol]
[1]; [13]
  Difference: −0.13
[1]; [14]
  Cholesterol-free: 1.177
[1]; [15]
  Complete: 1.05
[2]; [5]
  Cholesterol-free media + simvastatin (0.04 μM): 0.4758
[2]; [6]
  Complete Media: 1.318
[2]; [18]
  Difference: 0.84

## O=[N+]([O-])C(Br)(CO)CO [Bronopol]
[1]; Complete minus Cholesterol-free, greater than 0 enhanced anti-cancer activity, about 0 neutral, below 0 antagonists
  Difference: −0.52
[1]; [24]
  Cholesterol-free: 1.461
[1]; [25]
  Complete: 0.9389
[2]; [16]
  Cholesterol-free media + simvastatin (0.04 μM): 0.8221
[2]; [17]
  Complete Media: 0.9082
[2]; [18]
  Difference: 0.09

## Oc1c(Br)cc(Br)c2cccnc12 [Broxyquinoline]
[1]; [8]
  Cholesterol-free: 1.044
[1]; [9]
  Complete: 1.24
[1]; [20]
  Difference: 0.20
[2]; [5]
  Cholesterol-free media + simvastatin (0.04 μM): 1.072
[2]; [6]
  Complete Media: 1.219
[2]; [18]
  Difference: 0.15

## CCCC(=O)Nc1ncnc2c1ncn2[C@@H]1O[C@@H]2COP(=O)(O)O[C@H]2[C@H]1OC(=O)CCC [Bucladesine (calcium)]
[1]; [13]
  Difference: −0.13
[1]; [14]
  Cholesterol-free: 0.8949
[1]; [15]
  Complete: 0.7629
[2]; [10]
  Cholesterol-free media + simvastatin (0.04 μM): 0.8302
[2]; [11]
  Complete Media: 0.804
[2]; [12]
  Difference: −0.03

## CCCC(=O)Nc1ncnc2c1ncn2[C@@H]1O[C@@H]2COP(=O)(O)O[C@H]2[C@H]1OC(=O)CCC [Bucladesine (sodium)]
[1]; [3]
  Difference: −0.23
[1]; [4]
  Cholesterol-free: 1.11
[1]; NCI-H292 cells, complete media
  Complete: 0.8768
[2]; [21]
  Cholesterol-free media + simvastatin (0.04 μM): 1.094
[2]; drug in complete media
  Complete Media: 0.8977
[2]; [7]
  Difference: −0.20

## CC(C)(C)c1ccc(CN2CCN(C(c3ccccc3)c3ccc(Cl)cc3)CC2)cc1 (centres unmarked) [Buclizine (dihydrochloride)]
[1]; [8]
  Cholesterol-free: 0.6562
[1]; [9]
  Complete: 1.363
[1]; [20]
  Difference: 0.71
[2]; [16]
  Cholesterol-free media + simvastatin (0.04 μM): 0.9719
[2]; [17]
  Complete Media: 1.018
[2]; [18]
  Difference: 0.05

## CCCC1O[C@@H]2C[C@H]3[C@@H]4CCC5=CC(=O)C=C[C@]5(C)[C@H]4[C@@H](O)C[C@]3(C)[C@]2(C(=O)CO)O1 (some centres unmarked) [Budesonide]
[1]; [8]
  Cholesterol-free: 0.6924
[1]; [9]
  Complete: 1.034
[1]; [20]
  Difference: 0.34
[2]; [23]
  Cholesterol-free media + simvastatin (0.04 μM): 1.254
[2]; [22]
  Complete Media: 0.6405
[2]; [7]
  Difference: −0.61

## CCCCOc1ccc(CC(=O)NO)cc1 [Bufexamac]
[1]; [8]
  Cholesterol-free: 1.346
[1]; [9]
  Complete: 1.459
[1]; [20]
  Difference: 0.11
[2]; [5]
  Cholesterol-free media + simvastatin (0.04 μM): 1.029
[2]; [6]
  Complete Media: 1.594
[2]; [18]
  Difference: 0.56

## COc1cc(OC)c(C(=O)CCCN2CCCC2)c(OC)c1 [Buflomedil (hydrochloride)]
[1]; [3]
  Difference: −0.02
[1]; [8]
  Cholesterol-free: 0.6014
[1]; [9]
  Complete: 0.5837
[2]; [5]
  Cholesterol-free media + simvastatin (0.04 μM): 0.7629
[2]; [6]
  Complete Media: 1.555
[2]; [18]
  Difference: 0.79

## CCCCNc1cc(C(=O)O)cc(S(N)(=O)=O)c1Oc1ccccc1 [Bumetanide]
[1]; [3]
  Difference: 0.04
[1]; [8]
  Cholesterol-free: 0.6987
[1]; [9]
  Complete: 0.7406
[2]; [16]
  Cholesterol-free media + simvastatin (0.04 μM): 1.046
[2]; [17]
  Complete Media: 1.138
[2]; [18]
  Difference: 0.09

Reference: US20250144067A1, “PERSONALIZED STARVATION THERAPY FOR CANCER” (Faeth Therapeutics, Inc., priority 2021, published 2025)
